Measured values reported in patent publication US20260159512A1, “BCAT2 INHIBITORS” (AGIOS PHARMACEUTICALS, INC., priority 2021, published 2026).
pIC50: −log10 of the molar value.

Legend:
Details in all cases: average where tested multiple times
hBCAT1 = biological target: T1, hBCAT1 (Homo sapiens, UniProt P54687); assay: BCAT1 in vitro enzyme inhibition assay (resazurin/diaphorase-coupled fluorescence); format: biochemical
T1 sequence (P54687 1-386): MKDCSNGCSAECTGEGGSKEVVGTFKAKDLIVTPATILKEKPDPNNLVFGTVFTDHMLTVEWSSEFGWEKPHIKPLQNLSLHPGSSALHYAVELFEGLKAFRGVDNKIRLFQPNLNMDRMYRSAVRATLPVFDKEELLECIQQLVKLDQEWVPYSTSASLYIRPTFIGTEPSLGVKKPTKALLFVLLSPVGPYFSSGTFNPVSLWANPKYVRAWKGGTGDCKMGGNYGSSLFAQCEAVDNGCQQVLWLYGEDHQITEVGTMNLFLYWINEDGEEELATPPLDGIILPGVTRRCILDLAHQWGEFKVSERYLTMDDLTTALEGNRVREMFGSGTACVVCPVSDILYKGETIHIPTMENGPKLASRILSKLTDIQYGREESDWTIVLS
Procedure: BCAT1 In Vitro Enzyme Inhibition Assay
Meanwhile the Substrate Mix was prepared.
Test Compound Preparation:
Test compounds were prepared at 50× final concentration in DMSO, 1 to 3 dilutions were made for 10 points. The compounds were added to the assay as a 1 to 50 dilution (1 μL in 50 μL) to yield a top assay final concentration of 100 μM, decreasing 3-fold for 10 points. […] All tests were performed in technical duplicate.
Where a compound was tested multiple times, the average value of the tests is reported.

BCAT2 [1] = biological target: T2, BCAT2 (Homo sapiens, UniProt O15382); assay: BCAT2 in vitro enzyme inhibition assay (resazurin/diaphorase-coupled fluorescence); format: biochemical
T2 sequence (O15382 28-392): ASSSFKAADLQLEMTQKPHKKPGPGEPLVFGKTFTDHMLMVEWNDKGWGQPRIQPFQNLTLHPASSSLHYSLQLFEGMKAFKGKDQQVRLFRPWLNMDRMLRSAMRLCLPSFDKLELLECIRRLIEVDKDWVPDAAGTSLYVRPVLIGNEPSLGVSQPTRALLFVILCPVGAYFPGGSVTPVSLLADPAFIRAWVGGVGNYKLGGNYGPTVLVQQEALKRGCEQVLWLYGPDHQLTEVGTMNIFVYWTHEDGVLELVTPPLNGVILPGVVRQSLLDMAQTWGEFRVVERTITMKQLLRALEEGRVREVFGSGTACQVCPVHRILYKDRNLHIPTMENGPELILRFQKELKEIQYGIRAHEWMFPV
Outline: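 Coupled fluorescence readout: glutamate formed from L-leucine/α-ketoglutarate transamination drives GDH/NAD/diaphorase reduction of resazurin (Ex 540/Em 590). Human BCAT2 was first exposed 1 h at room temperature to compound, top final 100 μM in 3-fold, 10-point series; substrate reaction ran 1 h before SDS quench, in technical duplicate with DMSO max and enzyme-free min controls.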

BCAT2 [2] = biological target: T2, BCAT2; assay: BCAT2 in vitro cell inhibition using engineered A549 cells (KMV cell assay, 13C6-KMV by LC-MS/MS); format: cell-based; set-up: The result was an engineered A549 cell line that expressed endogenous BCAT2; endogenous in cells; host or cells: A549 cells with MUT and BCAT1 knocked out by CRISPR/CAS9; key to BCAT2 Cell Inhibition: A: less than or equal to 0.100 μM; B: greater than 0.100 and less than or equal to 0.500 μM; C: greater than 0.500 and less than or equal to 1.000 μM; d: greater than 1.000 μM; E: no fit

Row | pIC50 (hBCAT1) | pIC50 (BCAT2 [1]) | pIC50 (BCAT2 [2]) | BCAT2 Cell Inhibition (BCAT2 [2]) | Structure (SMILES)
1 | > 6.30 | ≥ 7.00 | – | – | CC(C)Cc1nc2cnc(-c3ncccn3)cc2n1[C@H]1C[C@H](O)C[C@@H](NC(=O)c2ncc(Cl)s2)C1 (stereo in doubt) [Example 398, 5-chloro-N-((1S,3R,5R)-3-hydroxy-5-(2-isobutyl-6-(pyrimidin-2-yl)-1H-imidazo[4,5-c]pyridin-1-yl)cyclohexyl)thiazole-2-carboxamide]
2 | < 5.30 | < 6.00 | – | – | Cc1nc2cnc(-n3nccn3)cc2n1[C@@H]1CCC[C@H](NC(=O)c2ccc(Br)s2)C1 [Example 51, 5-bromo-N-((1S,3R)-3-(2-methyl-6-(2H-1,2,3-triazol-2-yl)-1H-imidazo[4,5-c]pyridin-1-yl)cyclohexyl)thiophene-2-carboxamide]
3 | 5.30 to 6.00 | ≥ 7.00 | – | – | O=C(NC1CCCC(n2c(-c3ccccn3)nc3cc(-c4nnco4)ncc32)C1)c1ccc(Br)s1 (centres unmarked) [Example 157, N-(3-(6-(1,3,4-oxadiazol-2-yl)-2-(pyridin-2-yl)-3H-imidazo[4,5-c]pyridin-3-yl)cyclohexyl)-5-bromothiophene-2-carboxamide]
4 | < 5.30 | < 6.00 | – | – | O=C(N[C@H]1CCC[C@@H](n2c(-c3ncccc3F)nc3cnc(N4CCC4)cc32)C1)c1ccc(Br)s1 [Example 300]
5 | – | 6.30 to 7.00 | 6.00 to 6.30 | – | O=C(N[C@@H]1CCCC[C@H](n2c(-c3ccccc3F)nc3cnc(-c4nc[nH]n4)cc32)[C@H]1O)c1ccc(Cl)s1 [Example 404, 5-chloro-N-((1R,2S,3S)-3-(2-(2-fluorophenyl)-6-(1H-1,2,4-triazol-3-yl)-1H-imidazo[4,5-c]pyridin-1-yl)-2-hydroxycycloheptyl)thiophene-2-carboxamide]
6 | – | 6.30 to 7.00 | < 6.00 | – | CC(C)Cc1nc2cnc(-c3nc[nH]n3)cc2n1[C@H]1CCC[C@@H](NC(=O)c2ncc(Cl)s2)[C@@H]1O [Example 251, 5-chloro-N-((1R,2S,3S)-2-hydroxy-3-(2-isobutyl-6-(1H-1,2,4-triazol-3-yl)-1H-imidazo[4,5-c]pyridin-1-yl)cyclohexyl)thiazole-2-carboxamide]
7 | – | < 6.00 | – | E | COC(=O)N[C@@H](c1nc2cnc(-c3nc[nH]n3)cc2n1[C@@H]1CCC[C@H](NC(=O)c2ncc(Cl)s2)C1)C(C)C [Example 371, methyl ((R)-1-(1-((1R,3S)-3-(5-chlorothiazole-2-carboxamido)cyclohexyl)-6-(1H-1,2,4-triazol-3-yl)-1H-imidazo[4,5-c]pyridin-2-yl)-2-methylpropyl)carbamate]
8 | – | < 6.00 | – | E | CC(C)Oc1nc2cnc(-n3ccnn3)cc2n1[C@@H]1CCC[C@H](NC(=O)c2ncc(C(F)F)s2)C1 [Example 97, 5-(difluoromethyl)-N-((1S,3R)-3-(2-isopropoxy-6-(1H-1,2,3-triazol-1-yl)-1H-imidazo[4,5-c]pyridin-1-yl)cyclohexyl)thiazole-2-carboxamide]
9 | – | < 6.00 | – | E | CO[C@H]1C[C@H](NC(=O)c2ncc(Cl)s2)C[C@H](n2c(CC(C)C)nc3cnc(-c4nc[nH]n4)cc32)C1 (stereo in doubt) [Example 413, 5-chloro-N-((1R,3S,5S)-3-(2-isobutyl-6-(1H-1,2,4-triazol-3-yl)-1H-imidazo[4,5-c]pyridin-1-yl)-5-methoxycyclohexyl)thiazole-2-carboxamide]
10 | – | 6.00 to 6.30 | – | E | CO[C@H]1C[C@@H](NC(=O)c2ncc(Cl)s2)C[C@@H](n2c(CC(C)C)nc3cnc(-n4nccn4)cc32)C1 (single isomer, unassigned) [Example 440]
11 | – | 6.30 to 7.00 | – | E | CC(C)Cc1nc2cnc(-c3ccccc3C#N)cc2n1[C@@H]1CCC[C@H](NC(=O)c2ncc(Cl)s2)C1 [Example 335, 5-chloro-N-((1S,3R)-3-(6-(2-cyanophenyl)-2-isobutyl-1H-imidazo[4,5-c]pyridin-1-yl)cyclohexyl)thiazole-2-carboxamide]
12 | – | 6.00 to 6.30 | < 6.00 | – | O=C(N[C@H]1CCC[C@@H](n2c(-c3ccccc3F)nc3cnc(-c4nncn4C(F)F)cc32)C1)c1ncc(Cl)s1 [Example 377, 5-chloro-N-((1S,3R)-3-(6-(4-(difluoromethyl)-4H-1,2,4-triazol-3-yl)-2-(2-fluorophenyl)-1H-imidazo[4,5-c]pyridin-1-yl)cyclohexyl)thiazole-2-carboxamide]
13 | – | < 6.00 | < 6.00 | – | COC[C@H]1CCCN1c1cc2c(cn1)nc(-c1ccccc1F)n2[C@@H]1CCC[C@H](NC(=O)c2ncc(Cl)s2)C1 [Example 198, 5-chloro-N-((1S,3R)-3-(2-(2-fluorophenyl)-6-((R)-2-(methoxymethyl)pyrrolidin-1-yl)-1H-imidazo[4,5-c]pyridin-1-yl)cyclohexyl)thiazole-2-carboxamide]
14 | – | < 6.00 | – | E | CC(C)Cc1nc2cnc(-c3cccc(F)n3)cc2n1[C@H]1CCC[C@@H](NC(=O)c2ncc(Cl)s2)[C@@H]1O [Example 208, 5-chloro-N-((1R,2S,3S)-3-(6-(6-fluoropyridin-2-yl)-2-isobutyl-1H-imidazo[4,5-c]pyridin-1-yl)-2-hydroxycyclohexyl)thiazole-2-carboxamide]
15 | – | 6.00 to 6.30 | 6.00 to 6.30 | – | Cc1cnn(-c2cc3c(cn2)nc(-c2ccccc2F)n3[C@H]2CCC[C@@H](NC(=O)c3ncc(Cl)s3)[C@@H]2O)n1 [Example 247, 5-chloro-N-((1R,2S,3S)-3-(2-(2-fluorophenyl)-6-(4-methyl-2H-1,2,3-triazol-2-yl)-1H-imidazo[4,5-c]pyridin-1-yl)-2-hydroxycyclohexyl)thiazole-2-carboxamide]
16 | – | 6.00 to 6.30 | – | E | O=C(O)CCc1ccccc1-c1nc2cnc(-n3nccn3)cc2n1[C@@H]1CCC[C@H](NC(=O)c2ncc(C(F)F)s2)C1 [Example 100, 3-(2-(1-((1R,3S)-3-(5-(difluoromethyl)thiazole-2-carboxamido)cyclohexyl)-6-(2H-1,2,3-triazol-2-yl)-1H-imidazo[4,5-c]pyridin-2-yl)phenyl)propanoic acid]
17 | – | < 6.00 | – | E | CO[C@@H]1C[C@@H](NC(=O)c2ncc(Cl)s2)C[C@@H](n2c(-c3ncccc3F)nc3cnc(-c4nc[nH]n4)cc32)C1 (single isomer, unassigned) [Example 443]
18 | – | ≥ 7.00 | 6.30 to 7.00 | – | O=C(N[C@@H]1C[C@@H](O)C[C@H](n2c(-c3ccccc3F)nc3cnc(-c4nc[nH]n4)cc32)C1)c1ccc(Cl)s1 [Example 255, 5-chloro-N-((1S,3R,5R)-3-(2-(2-fluorophenyl)-6-(1H-1,2,4-triazol-3-yl)-1H-imidazo[4,5-c]pyridin-1-yl)-5-hydroxycyclohexyl)thiophene-2-carboxamide]
19 | – | < 6.00 | – | E | CC(C)Cc1nc2cnc(-n3cc(F)cn3)cc2n1[C@H]1CCC[C@@H](NC(=O)c2ncc(Cl)s2)[C@@H]1O [Example 231, 5-chloro-N-((1R,2S,3S)-3-(6-(4-fluoro-1H-pyrazol-1-yl)-2-isobutyl-1H-imidazo[4,5-c]pyridin-1-yl)-2-hydroxycyclohexyl)thiazole-2-carboxamide]
